{"source": "PubChem BioAssay AID1963977", "about": "(Molecular Pharmacology Branch, DTP, NCI, 2024);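 also: spheroids exposed to agents for seven days before luminescence read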;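 as to viability, T/C: luminescent signal used as a stand-in for spheroid viability; percent viability relative to DMSO vehicle control wells taken as 100%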", "test_system": "624824-186-R-J3-PDC multicell spheroids, viability", "assay": "Anticancer human tumor 624824-186-R-J3-PDC patient-derived colon adenocarcinoma cell line growth inhibition [PI3K]", "settings": "for IC50: curve of first compound; for viability, T/C: stronger effect = lower value", "outline": "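Multi-cell spheroids combine tumor cells with HUVEC and human MSCs, treated with targeted agents alone or with inavolisib, alpelisib, duvelisib or copanlisib. Concentrations fall in half-log steps from at or near clinical Cmax, or from 10 microM where Cmax is unknown; viability read-out.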"}
{"smiles": "CC(=O)c1c(C)c2cnc(Nc3ccc(N4CCNCC4)cn3)nc2n(C2CCCC2)c1=O", "note": "+ COc1c(OCCCN2CCOCC2)ccc2c3n(c(=NC(=O)c4cnc(N)nc4)nc12)CCN3", "values": [{"measurement": "IC50", "setting": "second compound 0.00316 µM", "result": "> 100", "unit": "nM"}, {"measurement": "IC50", "setting": "second compound 0.01 µM", "result": "> 100", "unit": "nM"}, {"measurement": "IC50", "setting": "second compound 0.0316 µM", "result": "> 100", "unit": "nM"}, {"measurement": "IC50", "setting": "second compound 0.1 µM", "result": 93, "unit": "nM"}, {"measurement": "IC50", "setting": "second compound 0.316 µM", "result": 0.852, "unit": "nM"}, {"measurement": "IC50", "setting": "second compound 1 µM", "result": "< 0.316", "unit": "nM"}, {"measurement": "viability, T/C", "setting": "second compound 0.00316 µM, first compound 0.000316 µM", "result": 99.3, "unit": "%"}, {"measurement": "viability, T/C", "setting": "second compound 0.00316 µM, first compound 0.001 µM", "result": 97.3, "unit": "%"}, {"measurement": "viability, T/C", "setting": "second compound 0.00316 µM, first compound 0.00316 µM", "result": 107, "unit": "%"}, {"measurement": "viability, T/C", "setting": "second compound 0.00316 µM, first compound 0.01 µM", "result": 96.7, "unit": "%"}, {"measurement": "viability, T/C", "setting": "second compound 0.00316 µM, first compound 0.0316 µM", "result": 93, "unit": "%"}, {"measurement": "viability, T/C", "setting": "second compound 0.00316 µM, first compound 0.1 µM", "result": 108, "unit": "%"}, {"measurement": "viability, T/C", "setting": "second compound 0.01 µM, first compound 0.000316 µM", "result": 104, "unit": "%"}, {"measurement": "viability, T/C", "setting": "second compound 0.01 µM, first compound 0.001 µM", "result": 103, "unit": "%"}, {"measurement": "viability, T/C", "setting": "second compound 0.01 µM, first compound 0.00316 µM", "result": 104, "unit": "%"}, {"measurement": "viability, T/C", "setting": "second compound 0.01 µM, first compound 0.01 µM", "result": 105, "unit": "%"}, {"measurement": "viability, T/C", "setting": "second compound 0.01 µM, first compound 0.0316 µM", "result": 98.8, "unit": "%"}, {"measurement": "viability, T/C", "setting": "second compound 0.01 µM, first compound 0.1 µM", "result": 116, "unit": "%"}, {"measurement": "viability, T/C", "setting": "second compound 0.0316 µM, first compound 0.000316 µM", "result": 90.9, "unit": "%"}, {"measurement": "viability, T/C", "setting": "second compound 0.0316 µM, first compound 0.001 µM", "result": 106, "unit": "%"}, {"measurement": "viability, T/C", "setting": "second compound 0.0316 µM, first compound 0.00316 µM", "result": 86.6, "unit": "%"}, {"measurement": "viability, T/C", "setting": "second compound 0.0316 µM, first compound 0.01 µM", "result": 87.3, "unit": "%"}, {"measurement": "viability, T/C", "setting": "second compound 0.0316 µM, first compound 0.0316 µM", "result": 93.7, "unit": "%"}, {"measurement": "viability, T/C", "setting": "second compound 0.0316 µM, first compound 0.1 µM", "result": 80.4, "unit": "%"}, {"measurement": "viability, T/C", "setting": "second compound 0.1 µM, first compound 0.000316 µM", "result": 75.1, "unit": "%"}, {"measurement": "viability, T/C", "setting": "second compound 0.1 µM, first compound 0.001 µM", "result": 75.8, "unit": "%"}, {"measurement": "viability, T/C", "setting": "second compound 0.1 µM, first compound 0.00316 µM", "result": 74.4, "unit": "%"}, {"measurement": "viability, T/C", "setting": "second compound 0.1 µM, first compound 0.01 µM", "result": 74, "unit": "%"}, {"measurement": "viability, T/C", "setting": "second compound 0.1 µM, first compound 0.0316 µM", "result": 70.5, "unit": "%"}, {"measurement": "viability, T/C", "setting": "second compound 0.1 µM, first compound 0.1 µM", "result": 48.6, "unit": "%"}, {"measurement": "viability, T/C", "setting": "second compound 0.316 µM, first compound 0.000316 µM", "result": 52.9, "unit": "%"}, {"measurement": "viability, T/C", "setting": "second compound 0.316 µM, first compound 0.001 µM", "result": 46.5, "unit": "%"}, {"measurement": "viability, T/C", "setting": "second compound 0.316 µM, first compound 0.00316 µM", "result": 49.9, "unit": "%"}, {"measurement": "viability, T/C", "setting": "second compound 0.316 µM, first compound 0.01 µM", "result": 40.2, "unit": "%"}, {"measurement": "viability, T/C", "setting": "second compound 0.316 µM, first compound 0.0316 µM", "result": 35.6, "unit": "%"}, {"measurement": "viability, T/C", "setting": "second compound 0.316 µM, first compound 0.1 µM", "result": 26.4, "unit": "%"}, {"measurement": "viability, T/C", "setting": "second compound 1 µM, first compound 0.000316 µM", "result": 27.6, "unit": "%"}, {"measurement": "viability, T/C", "setting": "second compound 1 µM, first compound 0.001 µM", "result": 32, "unit": "%"}, {"measurement": "viability, T/C", "setting": "second compound 1 µM, first compound 0.00316 µM", "result": 28.3, "unit": "%"}, {"measurement": "viability, T/C", "setting": "second compound 1 µM, first compound 0.01 µM", "result": 26.7, "unit": "%"}, {"measurement": "viability, T/C", "setting": "second compound 1 µM, first compound 0.0316 µM", "result": 21.5, "unit": "%"}, {"measurement": "viability, T/C", "setting": "second compound 1 µM, first compound 0.1 µM", "result": 19.7, "unit": "%"}]}
